Results from US20190227053A1, “BIO-ELECTRIC NOSE” (NEW YORK UNIVERSITY, priority 2016, published 2019).

System: olfactory bulb glomeruli
Test: Odor detection by the bio-electronic nose (surface electrode array on the olfactory bulb)
Format: in vivo, mouse
Conditions: FIG. 10
Excerpt: In one embodiment utilizing an organism, such as a mouse, as the chemical detector, the mouse is anesthetized and a craniotomy will be made above one of the OBs. A grid electrode will be positioned on the surface of the bulb. The recording is optimized for different conditions: sub or epi-durally or through a thin layer of skull. Alternatively, a surface electrode can be implanted in conjunction with a probe (such as silicone) inserted to the bulb to obtain signals from higher processing levels, such as the mitral/tufted cells, to improve the filtration of early olfactory responses. Typically, the electrode is divided into several areas (1-4) of 8×8 electrode sites. […]
In one embodiment, a method of interpreting information from the at least one electrode relies on the development of reliable techniques for recording on the surface of the bulb and on algorithms for extracting odor information from these recordings. […] Theta waves, indicative of respiration, are used to verify inhalation in conjunction with readings from the pressure signal. […]
For […], at each session a mouse will be positioned in a head-fixed apparatus similar to that used for anesthetized recordings (FIG. 7). The sniffing/breathing pattern and signals continuously recorded from electrode array, and we will expose the mouse to multiple odor presentations (n˜500). […]

For CCCCC(=O)OC [Methyl Valerate], the minimum detectable concentration (odorant detected by the bio-electronic nose) was 10^−12 M.

NCCc1ccccc1 [Phenylethylamine] gave an EC50 (odorant presented to mouse with electrode array on olfactory bulb, read-out: minimum concentration (EC50) detected by the bio-electronic nose) of 10 pM.
